Experimental data: patent publication EP4745145A1, “SALT OF THIAZOLOPYRAZINE COMPOUND OR CRYSTAL THEREOF AND USE THEREOF” (Simcere Zaiming Pharmaceutical Co., Ltd., priority 2023, dated 2025)
Structures can show the parent of a compound that is named as a salt.

Tests used:
Type in all cases: physicochemical
[1] = Solubility experiment in water
Procedure: The thermodynamic solubility of the compounds of the present disclosure was determined using the following test method.
The thermodynamic solubility of the compounds of the present disclosure in water was investigated. Water (1000 µL) was measured and placed into a 1 mL transparent glass tube with a stopper. An appropriate amount of each sample was weighed and added to saturate the solution, and the solution was shaken to disperse the sample. […] Then, an appropriate amount of the sample was taken, filtered through a microporous filter membrane, and subjected to content determination using high-performance liquid chromatography with an external standard method. The thermodynamic solubility of each compound in water (µg/mL) was calculated.

[2] = Accelerated experiment (stability at 40 °C, 75% RH)
Procedure: (§1) Each test sample was placed under high temperature (60 °C), high humidity (92.5%), light (7000 lux), or accelerated (40 °C, 75% RH) conditions using a 2 mL screw-thread sample vial in an open state; each sample was placed with packaging (2 layers of medicinal low-density polyethylene bags + 1 layer of polyester/aluminum/polyethylene medicinal composite film bag) under light (7000 lux) or accelerated (40 °C, 75% RH) conditions to investigate the stability of the sample.

[3] = Hygroscopicity experiment (dynamic vapor sorption); conditions: 80.0% RH, 25 °C
Procedure: Test conditions for the instruments used in the experiments of the present disclosure: • 1. X-ray powder diffraction • Instrument model: Bruker D8 Focus • X-ray light source: Cu Kα • Kα1 (Å): 1.54060; • Wavelength λ (Å): 1.54060 • Slit (°): 2.5 • Scan mode: θ/2θ, scan range: 3-40° (2θ angle) • Retention time (s): 0.12 • Scanning step length (° 2θ): 0.01 • Voltage: 40 kV • Current: 40 mA • 2. Differential scanning calorimeter • Instrument model: Discovery DSC 2500 • Purging gas: nitrogen • Sample tray: aluminum tray, non-sealing gland • Method: linear heating • Ramping rate: 10 °C/min • Temperature range: 30 °C-400 °C • 3. Thermogravimetric analyzer • Instrument model: Discovery TA 55 • Purging gas: nitrogen • Sample tray: platinum, open • Method: linear heating • Ramping rate: Ramp from a starting temperature of 30 °C to 400 °C at a rate of 10 °C/min • Temperature range: 30 °C-400 °C • 4. Dynamic vapor sorption instrument • Instrument model: DVS Intrinsic. • DVS parameters: • Temperature: 25 °C; • Equilibrium: dm/dt = 0.002%/min • RH (%) test gradient: 10% • Range of RH (%) test gradient: 0%-90%-0%. • 5. Ion chromatography • Instrument model: Thermo Fisher Integrion, No. IC001 • Test method: Conductivity […] • Separation column: Dionex IonpacTM CS12 Guard 4 × 250 mm • Eluent: 20 mM methanesulfonic acid solution • Flow rate: 1.0 mL/min
• (1) Experimental instrument: dynamic vapor sorption DVS Intrinsic. • (2) Experimental conditions: Each test sample was taken and placed in a DVS sample pan for testing. • (3) DVS parameters: • Temperature: 25 °C; • Equilibrium: dm/dt = 0.002%/min • RH (%) test gradient: 10% • Range of RH (%) test gradient: 0%-90%-0%.

[4] = Influencing factor experiment (stability under high temperature, high humidity, light)
Procedure: as §1

[5] = Accelerated (40 °C), packaged, 14d
[6] = Accelerated (40 °C), packaged, 32d
[7] = Light (7000 lux, packaged), 10d
[8] = Light (7000 lux, packaged), 32d

SMILES: COc1ccc(Cl)cc1-c1cc(C)ncc1C(=O)Nc1nc2ncc(-c3ccc(C#N)cc3)nc2s1 [Crystal form A]
- Dynamic solubility in water ([1]; 1h, 60 min): 2081.71 µg/mL
- Dynamic solubility in water ([1]; 2h, 120 min): 1590.35 µg/mL
- Dynamic solubility in water ([1]; 4h, 240 min): 1441.04 µg/mL
- Dynamic solubility in water ([1]; 24h, 1440 min): 27.01 µg/mL
- Purity ([2]; 0 h, 0d): 99.21%
- Total impurities ([2]; 0 h, 0d): 0.79%
- Purity ([2]; Accelerated (40 °C), open, 7d): 99.21%
- Total impurities ([2]; Accelerated (40 °C), open, 7d): 0.79%
- Purity ([2]; Accelerated (40 °C), open, 14d): 99.17%
- Total impurities ([2]; Accelerated (40 °C), open, 14d): 0.83%
- Purity ([2]; Accelerated (40 °C), open, 32d): 99.18%
- Total impurities ([2]; Accelerated (40 °C), open, 32d): 0.82%
- Purity [2, 5]: 99.19%
- Total impurities [2, 5]: 0.81%
- Purity [2, 6]: 99.19%
- Total impurities [2, 6]: 0.81%
- weight gain due to moisture absorption [3]: 1.6%
- Purity ([4]; 0 h, 0d): 99.21%
- Total impurities ([4]; 0 h, 0d): 0.79%
- Purity ([4]; High humidity (92.5% RH), 7d): 99.26%
- Total impurities ([4]; High humidity (92.5% RH), 7d): 0.74%
- Purity ([4]; High humidity (92.5% RH), 14d): 99.20%
- Total impurities ([4]; High humidity (92.5% RH), 14d): 0.80%
- Purity ([4]; High humidity (92.5% RH), 32d): 99.21%
- Total impurities ([4]; High humidity (92.5% RH), 32d): 0.79%
- Purity ([4]; High temperature (60 °C), 7d): 99.23%
- Total impurities ([4]; High temperature (60 °C), 7d): 0.77%
- Purity ([4]; High temperature (60 °C), 14d): 99.17%
- Total impurities ([4]; High temperature (60 °C), 14d): 0.83%
- Purity ([4]; High temperature (60 °C), 32d): 99.15%
- Total impurities ([4]; High temperature (60 °C), 32d): 0.85%
- Purity ([4]; Light (7000 lux, open), 7d): 99.11%
- Total impurities ([4]; Light (7000 lux, open), 7d): 0.89%
- Purity ([4]; Light (7000 lux, open), 14d): 98.75%
- Total impurities ([4]; Light (7000 lux, open), 14d): 1.25%
- Purity ([4]; Light (7000 lux, open), 32d): 98.24%
- Total impurities ([4]; Light (7000 lux, open), 32d): 1.76%
- Purity [4, 7]: 99.19%
- Total impurities [4, 7]: 0.81%
- Purity [4, 8]: 99.22%
- Total impurities [4, 8]: 0.78%

SMILES: COc1ccc(Cl)cc1-c1cc(C)ncc1C(=O)Nc1nc2ncc(-c3ccc(C#N)cc3)nc2s1 [Crystal form E]
- Dynamic solubility in water ([1]; 1h, 60 min): <0.5 µg/mL
- Dynamic solubility in water ([1]; 2h, 120 min): 1.03 µg/mL
- Dynamic solubility in water ([1]; 4h, 240 min): 2.26 µg/mL
- Dynamic solubility in water ([1]; 24h, 1440 min): 2.72 µg/mL
- Purity ([2]; 0 h, 0d): 99.39%
- Total impurities ([2]; 0 h, 0d): 0.52%
- Purity ([2]; Accelerated (40 °C), open, 7d): 99.49%
- Total impurities ([2]; Accelerated (40 °C), open, 7d): 0.51%
- physical stability ([2]; accelerated (40 °C, 75% RH)): relatively poor physical stability
- weight gain due to moisture absorption [3]: 2.5%
- Purity ([4]; 0 h, 0d): 99.39%
- Total impurities ([4]; 0 h, 0d): 0.52%
- Purity ([4]; High humidity (92.5% RH), 11d): 99.48%
- Total impurities ([4]; High humidity (92.5% RH), 11d): 0.52%
- Purity ([4]; High temperature (60 °C), 11d): 99.25%
- Total impurities ([4]; High temperature (60 °C), 11d): 0.75%
- Purity ([4]; Light (7000 lux, open), 7d): 99.24%
- Total impurities ([4]; Light (7000 lux, open), 7d): 0.76%
- physical stability ([4]; high humidity (92.5% RH)): relatively poor physical stability

SMILES: COc1ccc(Cl)cc1-c1cc(C)ncc1C(=O)Nc1nc2ncc(-c3ccc(C#N)cc3)nc2s1 [Crystal form C]
- Dynamic solubility in water ([1]; 1h, 60 min): 857.52 µg/mL
- Dynamic solubility in water ([1]; 4h, 240 min): 1337.74 µg/mL
- Dynamic solubility in water ([1]; 24h, 1440 min): 108.15 µg/mL
- Purity ([2]; 0 h, 0d): 99.2%
- Total impurities ([2]; 0 h, 0d): 0.8%
- Purity ([2]; Accelerated (40 °C), open, 7d): 99.20%
- Total impurities ([2]; Accelerated (40 °C), open, 7d): 0.80%
- Purity ([2]; Accelerated (40 °C), open, 14d): 99.21%
- Total impurities ([2]; Accelerated (40 °C), open, 14d): 0.79%
- weight gain due to moisture absorption [3]: -4.3%
- Purity ([4]; 0 h, 0d): 99.2%
- Total impurities ([4]; 0 h, 0d): 0.80%
- Purity ([4]; High humidity (92.5% RH), 7d): 99.21%
- Total impurities ([4]; High humidity (92.5% RH), 7d): 0.79%
- Purity ([4]; High humidity (92.5% RH), 14d): 99.20%
- Total impurities ([4]; High humidity (92.5% RH), 14d): 0.80%
- Purity ([4]; High temperature (60 °C), 7d): 99.26%
- Total impurities ([4]; High temperature (60 °C), 7d): 0.74%
- Purity ([4]; High temperature (60 °C), 14d): 99.22%
- Total impurities ([4]; High temperature (60 °C), 14d): 0.78%
- Purity ([4]; Light (7000 lux, open), 7d): 98.29%
- Total impurities ([4]; Light (7000 lux, open), 7d): 1.71%
- Purity ([4]; Light (7000 lux, open), 14d): 97.16%
- Total impurities ([4]; Light (7000 lux, open), 14d): 2.84%

SMILES: COc1ccc(Cl)cc1-c1cc(C)ncc1C(=O)Nc1nc2ncc(-c3ccc(C#N)cc3)nc2s1 [Amorphous form of sodium salt of compound of formula I]
- Dynamic solubility in water ([1]; 1h, 60 min): 1.57 µg/mL
- Dynamic solubility in water ([1]; 2h, 120 min): 4.37 µg/mL
- Dynamic solubility in water ([1]; 4h, 240 min): 44.68 µg/mL
- Dynamic solubility in water ([1]; 24h, 1440 min): 0.72 µg/mL
- Purity ([2]; 0 h, 0d): 99.31%
- Total impurities ([2]; 0 h, 0d): 0.52%
- Purity ([2]; Accelerated (40 °C), open, 7d): 99.33%
- Total impurities ([2]; Accelerated (40 °C), open, 7d): 0.67%
- Purity ([4]; 0 h, 0d): 99.31%
- Total impurities ([4]; 0 h, 0d): 0.52%
- Purity ([4]; High humidity (92.5% RH), 11d): 98.89%
- Total impurities ([4]; High humidity (92.5% RH), 11d): 1.11%
- Purity ([4]; High temperature (60 °C), 11d): 99.23%
- Total impurities ([4]; High temperature (60 °C), 11d): 0.77%
- Purity ([4]; Light (7000 lux, open), 7d): 97.57%
- Total impurities ([4]; Light (7000 lux, open), 7d): 2.43%

SMILES: COc1ccc(Cl)cc1-c1cc(C)ncc1C(=O)Nc1nc2ncc(-c3ccc(C#N)cc3)nc2s1 [Crystal form B]
- Dynamic solubility in water ([1]; 1h): <0.5 µg/mL
- Dynamic solubility in water ([1]; 2h): <0.5 µg/mL
- Dynamic solubility in water ([1]; 4h): <0.5 µg/mL
- Dynamic solubility in water ([1]; 24h): 0.77 µg/mL
- Purity ([2]; 0 h, 0d): 98.89%
- Total impurities ([2]; 0 h, 0d): 1.11%
- Purity ([2]; Accelerated (40 °C), open, 7d): 98.84%
- Total impurities ([2]; Accelerated (40 °C), open, 7d): 1.16%
- Purity ([2]; Accelerated (40 °C), open, 14d): 98.87%
- Total impurities ([2]; Accelerated (40 °C), open, 14d): 1.13%
- Purity ([2]; Accelerated (40 °C), open, 32d): 98.88%
- Total impurities ([2]; Accelerated (40 °C), open, 32d): 1.12%
- Purity [2, 5]: 98.87%
- Total impurities [2, 5]: 1.13%
- Purity [2, 6]: 98.82%
- Total impurities [2, 6]: 1.18%
- weight gain due to moisture absorption [3]: 1.5%
- Purity ([4]; 0 h, 0d): 98.89%
- Total impurities ([4]; 0 h, 0d): 1.11%
- Purity ([4]; High humidity (92.5% RH), 7d): 98.60%
- Total impurities ([4]; High humidity (92.5% RH), 7d): 1.40%
- Purity ([4]; High humidity (92.5% RH), 14d): 98.89%
- Total impurities ([4]; High humidity (92.5% RH), 14d): 1.11%
- Purity ([4]; High humidity (92.5% RH), 32d): 98.83%
- Total impurities ([4]; High humidity (92.5% RH), 32d): 1.17%
- Purity ([4]; High temperature (60 °C), 7d): 98.98%
- Total impurities ([4]; High temperature (60 °C), 7d): 1.02%
- Purity ([4]; High temperature (60 °C), 14d): 98.93%
- Total impurities ([4]; High temperature (60 °C), 14d): 1.07%
- Purity ([4]; High temperature (60 °C), 32d): 98.84%
- Total impurities ([4]; High temperature (60 °C), 32d): 1.16%
- Purity ([4]; Light (7000 lux, open), 7d): 98.84%
- Total impurities ([4]; Light (7000 lux, open), 7d): 1.16%
- Purity ([4]; Light (7000 lux, open), 14d): 98.85%
- Total impurities ([4]; Light (7000 lux, open), 14d): 1.15%
- Purity ([4]; Light (7000 lux, open), 32d): 98.73%
- Total impurities ([4]; Light (7000 lux, open), 32d): 1.27%
- Purity [4, 7]: 98.90%
- Total impurities [4, 7]: 1.10%
- Purity [4, 8]: 98.90%
- Total impurities [4, 8]: 1.10%
